Values after ≈ are worked out from the molar mass of the structure shown.
Assays:
A549 = assay: Cytotoxicity against human A549 cells assessed as cell growth inhibition incubated for 48 hrs by MTT assay; type: functional, cell-based; conditions: A549, 48 h
NUGC-3 [1] = assay: Cytotoxicity against human NUGC-3 cells assessed as cell growth inhibition by measuring lethal dose incubated for 30 mins by MTT assay; type: functional; conditions: NUGC-3, 0.5 h, read-out: LD50 (the source's name)
HeLa S3 = assay: Cytotoxicity against human HeLa S3 cells; type: functional, cell-based; conditions: Homo sapiens, HeLa S3; read-out: IC50
P388 = assay: Cytotoxicity against mouse P388 cells; type: functional, cell-based; conditions: Mus musculus, P388; read-out: IC50
B16 = assay: Cytotoxicity against mouse B16 cells; type: functional, cell-based; conditions: Mus musculus, B16; read-out: IC50
NCI-H69 = assay: Cytotoxicity against human NCI-H69 cells; type: functional, cell-based; conditions: Homo sapiens, NCI-H69; read-out: IC50
P388/ADM = assay: Cytotoxicity against mouse P388/ADM cells; type: functional, cell-based; conditions: Mus musculus, P388/ADM; read-out: IC50
MIA PaCa-2 = assay: Cytotoxicity against human MIA PaCa-2 cells assessed as inhibition of cell growth incubated for 72 hrs by CellTiter 96 aqueous one solution assay; type: functional, cell-based; conditions: MIA PaCa-2, 72 h
PK9 = assay: Cytotoxicity against human PK9 cells assessed as inhibition of cell growth incubated for 72 hrs by CellTiter 96 aqueous one solution assay; type: functional, cell-based; conditions: PK9, 72 h
[2] = biological target: RAC-alpha serine/threonine-protein kinase (Homo sapiens, UniProt P31749); assay: Inhibition of AKT1 (unknown origin) in presence of ATP by ELISA
Chain of RAC-alpha serine/threonine-protein kinase (P31749 whole entry): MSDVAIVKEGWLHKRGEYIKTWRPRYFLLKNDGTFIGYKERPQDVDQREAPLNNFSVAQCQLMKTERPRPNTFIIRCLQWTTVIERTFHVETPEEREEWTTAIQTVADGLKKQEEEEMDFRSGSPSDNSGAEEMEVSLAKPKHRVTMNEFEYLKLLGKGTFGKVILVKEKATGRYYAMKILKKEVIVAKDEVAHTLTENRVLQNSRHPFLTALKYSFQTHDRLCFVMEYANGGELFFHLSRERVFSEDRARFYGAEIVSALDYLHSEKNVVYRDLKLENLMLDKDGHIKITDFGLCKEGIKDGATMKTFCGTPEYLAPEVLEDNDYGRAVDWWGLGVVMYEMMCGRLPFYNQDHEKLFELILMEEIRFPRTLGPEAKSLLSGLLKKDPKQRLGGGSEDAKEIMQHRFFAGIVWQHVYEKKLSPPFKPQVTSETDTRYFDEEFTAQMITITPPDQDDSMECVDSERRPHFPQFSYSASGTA

IGROV-1 [3] = assay: Antiproliferative activity against human IGROV-1 cells assessed as inhibition of cell growth incubated for 72 hrs by Coulter counter assay; type: functional, cell-based; conditions: IGROV-1, 72 h
IGROV-1 [4] = assay: Antiproliferative activity against human IGROV-1 cells assessed as inhibition of cell growth incubated for 72 hrs in serum-free medium by Coulter counter assay; type: functional, cell-based; conditions: IGROV-1, 72 h
HepG2 = assay: Cytotoxicity against human HepG2 cells assessed as cell growth inhibition by MTT colorimetric assay; type: functional, cell-based
Hep 3B2 = assay: Cytotoxicity against human Hep3B cells assessed as cell growth inhibition by MTT colorimetric assay; type: functional, cell-based
MDA-MB-231 = assay: Cytotoxicity against human MDA-MB-231 cells assessed as cell growth inhibition by MTT colorimetric assay; type: functional, cell-based
Ca9-22 = assay: Cytotoxicity against human Ca9-22 cells assessed as cell growth inhibition by MTT colorimetric assay; type: functional, cell-based
AGS = assay: Antiproliferative activity against human AGS cells assessed as inhibition of cell growth incubated for 48 hrs by MTT assay; type: functional, cell-based
SF-268 = assay: Antiproliferative activity against human SF-268 cells assessed as inhibition of cell growth incubated for 48 hrs by MTT assay; type: functional, cell-based
HCT-116 = assay: Antiproliferative activity against human HCT-116 cells assessed as inhibition of cell growth incubated for 48 hrs by MTT assay; type: functional, cell-based
NCI-H460 = assay: Antiproliferative activity against human NCI-H460 cells assessed as inhibition of cell growth incubated for 48 hrs by MTT assay; type: functional, cell-based
MCF7 = assay: Antiproliferative activity against human MCF7 cells assessed as inhibition of cell growth incubated for 48 hrs by MTT assay; type: functional, cell-based
Lung NSCLC-N6 cell-line = assay: Cytotoxicity against human Lung NSCLC-N6 cell-line by MTT colorimetric assay; type: functional, cell-based
NUGC-3 [5] = assay: Cytotoxicity against human NUGC-3 cells assessed as cell growth inhibition incubated for 30 mins by MTT assay; type: functional, cell-based; conditions: NUGC-3, 0.5 h

In the case of `CCCCCCCCCCCCCCCC(=O)OCC(CO[C@H]1O[C@H](CS(=O)(=O)[O-])[C@@H](O)[C@H](O)[C@H]1O)OC(=O)CCCCCCCCCCCCCCC.[Na+]` (some centres undefined), the IC50 (A549) is reported as 83.5 µg/mL.
For `CCCCCCCCCCCCCCCCCC(=O)OCC(CO[C@H]1O[C@H](CS(=O)(=O)[O-])[C@@H](O)[C@H](O)[C@H]1O)OC(=O)CCCCCCCCCCCCCCCCC.[Na+]` (some centres undefined), the IC50 (A549) was 75.5 µg/mL.
Work on `CCCCCCCCCCCCCCCCCC(=O)OCC(O)CO[C@@H]1O[C@H](CS(=O)(=O)O)[C@@H](O)[C@H](O)[C@H]1O` (some centres undefined) yielded a CC50 (NUGC-3 [1]) of 135 µM.
In the case of `CCCCCCCCCCCCCCCCCC(=O)OCC(O)CO[C@H]1O[C@H](CS(=O)(=O)O)[C@@H](O)[C@H](O)[C@H]1O` (some centres undefined), the CC50 (NUGC-3 [1]) is reported as 150 µM.
Molecule `C/C=C(\C)[C@H](O[C@@H]1O[C@H](CO)[C@@H](O)[C@H](O)[C@H]1O)[C@H](C)/C=C(C)/C=C/C/C(C)=C/Cc1nc(OC)c(OC)c(O)c1C` has an IC50 (HeLa S3) of 0.11 µg/mL (≈ 0.19 µM), an IC50 (P388) of 0.36 µg/mL (≈ 0.623 µM) and an IC50 (B16) of 0.0074 µg/mL (≈ 0.0128 µM). It also gave an IC50 (NCI-H69) of 0.019 µg/mL (≈ 0.0329 µM) and an IC50 (P388/ADM) of 0.25 µg/mL (≈ 0.433 µM).
Work on `CCCCCCCCCCCCc1cn(CC[C@H]2NC[C@@H](O)[C@H]2O)nn1` yielded an IC50 (MIA PaCa-2) of 19 µM and an IC50 (PK9) of 19 µM.
`CCCCCCCCCCCCc1cn(C[C@@H]2N[C@@H](C)[C@@H](O)[C@H]2O)nn1` was tested, and the IC50 (MIA PaCa-2) was 19 µM and the IC50 (PK9) was 19 µM.
Molecule `COc1nc(C/C=C(\C)C/C=C/C(C)=C/[C@@H](C)[C@@H](O[C@@H]2O[C@H](CO)[C@@H](O)[C@H](O)[C@H]2O)/C(C)=C/CO)c(C)c(O)c1OC` has an IC50 (HeLa S3) of 0.76 µg/mL (≈ 1.28 µM), an IC50 (P388) of 1.6 µg/mL (≈ 2.69 µM) and an IC50 (B16) of 0.21 µg/mL (≈ 0.354 µM). For the same molecule, the IC50 (NCI-H69) was 0.066 µg/mL (≈ 0.111 µM) and the IC50 (P388/ADM) was 0.78 µg/mL (≈ 1.31 µM).
`CCCCCCCCCCCCCCCCCOC(=O)O[C@H](COC(=O)CCCCCCCCCCCCCCCCC)COP(=O)(O)O[C@@H]1[C@H](O)[C@H](OP(=O)(O)O)[C@@H](O)[C@H](O)[C@H]1O` gave an IC50 [2] of 19.7 µM, an IC50 (IGROV-1 [3]) of 49 µM and an IC50 (IGROV-1 [4]) of 3.35 µM.
`CCCCCCCCCCCCOC[C@@H](COO)O[C@@H]1OC[C@@H](O)[C@@H](O)[C@@H]1O` showed an IC50 (HepG2) of 9.2 µg/mL (≈ 22.5 µM), an IC50 (Hep 3B2) of 9.2 µg/mL (≈ 22.5 µM) and an IC50 (MDA-MB-231) of 9.2 µg/mL (≈ 22.5 µM). The IC50 (Ca9-22) was 9.2 µg/mL (≈ 22.5 µM).
`CCCCCCCCCCCCc1cn(C[C@H]2NC[C@H](O)[C@@H]2O)nn1` gave an IC50 (MIA PaCa-2) of 19 µM and an IC50 (PK9) of 19 µM.
`CCCCCCCCCCCCCCCCCC(=O)OC[C@H](COC1O[C@H](CS(=O)(=O)[O-])[C@@H](O)[C@H](O)[C@H]1O)OCC(=O)CCCCCCCCCCCCCCC.[Na+]` (some centres undefined) showed a CC50 (NUGC-3 [1]) of 80 µg/mL.
With `CCCCCCCCCCCCCCOC[C@@H](COO)O[C@@H]1OC[C@@H](O)[C@@H](O)[C@@H]1O` the IC50 (HepG2) was 9.2 µg/mL (≈ 21.1 µM), the IC50 (Hep 3B2) was 9.2 µg/mL (≈ 21.1 µM) and the IC50 (MDA-MB-231) was 9.2 µg/mL (≈ 21.1 µM). The IC50 (Ca9-22) was 9.2 µg/mL (≈ 21.1 µM).
`CC/C=C\C/C=C\C/C=C\CCCCCCCC(=O)OCC(CO[C@@H]1O[C@H](CO)[C@H](O)[C@H](O)[C@H]1O)OC(=O)CCCCCCCCCCCCCCCCC` (some centres undefined) showed an IC50 (AGS) of 0.039 µg/mL (≈ 0.0499 µM), an IC50 (SF-268) of 0.039 µg/mL (≈ 0.0499 µM) and an IC50 (HCT-116) of 0.039 µg/mL (≈ 0.0499 µM). It also gave an IC50 (NCI-H460) of 0.039 µg/mL (≈ 0.0499 µM) and an IC50 (MCF7) of 0.039 µg/mL (≈ 0.0499 µM).
Work on `CO[C@@H]1/C=C(\C)C[C@H](/C=C/C#C[C@H]2C[C@@H]2Cl)OC(=O)[C@@H](C)[C@]2(O)C[C@H](O[C@@H]3O[C@@H](C)[C@H](O[C@@H]4O[C@@H](C)[C@H](O)[C@@](C)(O)[C@H]4OC)[C@@](C)(O)[C@H]3OC)[C@@H](C)[C@@H](O2)[C@@H]1C` yielded an IC50 (Lung NSCLC-N6 cell-line) of 15.1 µg/mL (≈ 18.5 µM).
With `CCCCCCCCCCCCCCCCCC(=O)OCC(O)CO[C@H]1O[C@H](CO)[C@@H](O)[C@H](O)[C@H]1O` (some centres undefined) the IC50 (NUGC-3 [5]) was 110 µM.

Source: ChEMBL document CHEMBL5260828, “Amphiphilic glycoconjugates as potential anti-cancer chemotherapeutics” (Eur J Med Chem, 2018)
